# Experimental data from US8470889B2 (TRT Pharma Inc., priority 2008, dated 2013).
# Read-outs that look alike come from different tables or passages of the source.
# How the values were obtained:
# MCF-7 cells = test: Growth inhibition, MCF-7 breast cancer cells; assay type: cell-based; conditions: for IC50: Table 10, read-out: Cytotoxicity, IC50 (μM) MCF-7
# From the text: (§1) All samples were in triplicate.
# MDA-MB-231 cells = test: Growth inhibition, MDA-MB-231 breast cancer cells; assay type: cell-based; conditions: for IC50: Table 10, read-out: Cytotoxicity, IC50 (μM) MDA-M B231
# From the text: as §1
# H-1975 cells = test: Growth inhibition, H-1975 lung cancer cells; assay type: cell-based; conditions: for IC50: Table 10, read-out: Cytotoxicity, IC50 (μM) H-1975
# From the text: as §1
# H874Y mutated AR = biological target: T1, H874Y mutated AR (Homo sapiens, UniProt P10275, H875Y); test: Luciferase assay for AR transactivation, H874Y AR, PC-3 cells; assay type: cell-based; conditions: 0.1 nM DHT; for suppression of DHT-induced transactivation of H874Y AR: test compound 0.1-1 μM, PC-3 cells; for Antiandrogenic activity evaluated by luciferase assay in PC-3 cells H874Y: test compound 1 μM
# T1 sequence (P10275 1-920 H875Y): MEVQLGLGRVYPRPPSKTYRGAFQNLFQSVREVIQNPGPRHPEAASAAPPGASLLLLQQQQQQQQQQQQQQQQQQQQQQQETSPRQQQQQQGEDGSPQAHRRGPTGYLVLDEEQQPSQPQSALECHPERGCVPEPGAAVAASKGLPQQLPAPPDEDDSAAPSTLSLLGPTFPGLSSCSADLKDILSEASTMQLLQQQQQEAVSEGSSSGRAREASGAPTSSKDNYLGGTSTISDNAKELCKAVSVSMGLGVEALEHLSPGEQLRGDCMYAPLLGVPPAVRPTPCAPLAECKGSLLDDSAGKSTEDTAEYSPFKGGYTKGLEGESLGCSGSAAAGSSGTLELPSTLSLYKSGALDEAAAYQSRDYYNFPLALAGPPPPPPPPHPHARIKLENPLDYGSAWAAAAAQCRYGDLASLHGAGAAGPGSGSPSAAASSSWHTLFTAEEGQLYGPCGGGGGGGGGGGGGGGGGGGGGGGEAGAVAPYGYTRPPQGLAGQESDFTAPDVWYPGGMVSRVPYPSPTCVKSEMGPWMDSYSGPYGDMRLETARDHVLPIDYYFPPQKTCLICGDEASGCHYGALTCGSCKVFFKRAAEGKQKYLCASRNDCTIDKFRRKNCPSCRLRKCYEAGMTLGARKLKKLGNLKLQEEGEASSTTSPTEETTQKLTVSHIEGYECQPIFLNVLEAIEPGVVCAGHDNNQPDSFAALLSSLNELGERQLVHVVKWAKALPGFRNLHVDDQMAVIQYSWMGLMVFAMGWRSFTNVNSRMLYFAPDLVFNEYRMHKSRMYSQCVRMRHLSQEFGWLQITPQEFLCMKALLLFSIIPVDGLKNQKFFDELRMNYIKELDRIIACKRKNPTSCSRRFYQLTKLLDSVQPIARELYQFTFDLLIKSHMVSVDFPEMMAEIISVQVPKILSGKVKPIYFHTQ
# Protocol: PC-3 cells were transiently transfected with pCMV-MMTV-Luc, Renilla null luciferase and AR expressing plasmids. The cells were treated with 0.1 nM DHT with and without test compound for 24 hr. Relative luciferase activity was determined by dual luciferase assay kit (Promega), standardized to Renilla luciferase control and normalized to 0.1 nM DHT without test compound (100%).
# After 16 h, the cells were treated with 0.1 nM of DHT and test compounds at the designated concentration. After further 24 h, the cells were lysed in 100 μL/well passive lysis buffer, and 20 μL of the cell lysates was used for detection of the luciferase activity using Dual Luciferase Assay System (Promega). All experiments were run in triplicate. Relative luciferase activity is determined as the ratio of inducible firefly luciferase luminescence divided by the luminescence of the renilla luciferase control normalized to 0.1 nM DHT without test compounds.
# The potency of antagonistic activity: ++>+.
# MDA PCa 2b cells [1] = system: MDA PCa 2b cells;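 also: MDA PCa 2b prostate cancer cells in BRFF-HPC1 with 20% FBS, exposed to compounds for 72 h, viable-cell MTT formazan read as absorbance at 600 nm, 0.5% DMSO vehicle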
# 22Rv1 cells [2] = system: 22Rv1 cells
# C4-2B cells [3] = system: C4-2B cells;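 also: cells treated with a dilution series for 72 h, then MTT added and absorbance read at 600 nm, IC50 fitted from dose-response curves by nonlinear regression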
# PC-3 cells [4] = system: PC-3 cells
# PC-3 cells [5] = test: MTT cell growth inhibition, PC-3
# 22Rv1 cells [6] = test: MTT cell growth inhibition, 22Rv1; conditions: read-out: Cellular IC50 (μM) 22Rv1; Table 9; MTT
# C4-2B cells [7] = test: MTT cell growth inhibition, C4-2B; conditions: read-out: Cellular IC50 (μM) C4-2B, Table 9;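 also: cells treated with a dilution series for 72 h, then MTT added and absorbance read at 600 nm, IC50 fitted from dose-response curves by nonlinear regression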
# MDA PCa 2b cells [8] = test: MTT cell growth inhibition, MDA PCa 2b; conditions: MTT;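 also: MDA PCa 2b prostate cancer cells in BRFF-HPC1 with 20% FBS, exposed to compounds for 72 h, viable-cell MTT formazan read as absorbance at 600 nm, 0.5% DMSO vehicle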
# HP-LNCaP cells = test: MTT cellular growth, HP-LNCaP; assay type: cell-based; conditions: FIG. 10
# Protocol: HP-LNCaP cells were grown in the androgen-depleted medium (FIG. 9A) and grow more aggressively than LNCaP cells in the whole medium (FIG. 9B). Cellular growth was evaluated by MTT assays. […] HP-LNCaP cells over-express AR protein (FIG. 10C).
# [9] = biological target: T2, hormone-binding pocket of the AR-LBD (Rattus norvegicus, UniProt P15207); test: AR fluorescence polarization (FP) competitor assay; conditions: FIG. 8
# T2 construct: purchased Invitrogen P3018
# T2 sequence (P15207 651-882 limits assumed): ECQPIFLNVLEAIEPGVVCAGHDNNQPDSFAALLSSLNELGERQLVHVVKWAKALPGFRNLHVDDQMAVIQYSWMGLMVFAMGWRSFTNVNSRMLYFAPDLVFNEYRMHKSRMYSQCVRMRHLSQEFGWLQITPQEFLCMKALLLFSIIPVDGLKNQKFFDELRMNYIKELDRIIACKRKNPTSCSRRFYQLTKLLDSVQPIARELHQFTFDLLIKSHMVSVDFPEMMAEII
# From the text: The fluorescence polarization was used as a read-out and normalized to that of DMSO vehicle. Results are reported as average±s.d. of experiments performed in triplicates. DHT is included as a positive control.
# [10] = read-out: Cellular IC50 (μM) PC-3, Table 9
structure (smiles),measurement,setting,value
CC1=C(/C=C/C(=O)/C=C/c2cccc(C(F)(F)F)c2)C(C)(C)CCC1O (racemic) [Compound B25],effect in MCF-7 breast cancer cell line,MCF-7 cells,effective
same,IC50,MCF-7 cells,5.2 µM
same,effect in MDA-MB-231 breast cancer cell line,MDA-MB-231 cells,effective
same,IC50,MDA-MB-231 cells,4.4 µM
same,effect in H-1975 lung cancer cell line,H-1975 cells,effective
same,IC50,H-1975 cells,6.3 µM
same,suppression of DHT-induced transactivation of H874Y AR,H874Y mutated AR,dose-dependent activity
same,IC50,MDA PCa 2b cells [1],2600 nM
same,IC50,22Rv1 cells [2],1700 nM
same,IC50,C4-2B cells [3],1400 nM
same,IC50,PC-3 cells [4],3500 nM
CC1(C)CCC(O)C=C1/C=C/C(=O)/C=C/c1csc2ccccc12 (stereo not drawn) [Compound B92],suppression of DHT-induced transactivation of H874Y AR,H874Y mutated AR,pure antagonists
same,Antiandrogenic activity evaluated by luciferase assay in PC-3 cells H874Y,H874Y mutated AR,+
same,IC50,PC-3 cells [5]; [10],3.3 µM
same,IC50,"PC-3 cells [5]; read-out: Cytotoxicity in prostate cancer cell lines IC50 (μM), PC-3, Part D table, 72 hours, I.A. = Inactive",2 µM
same,IC50,22Rv1 cells [6],1.5 µM
same,IC50,C4-2B cells [7],1.1 µM
same,IC50,"MDA PCa 2b cells [8]; read-out: Cytotoxicity in prostate cancer cell lines IC50 (μM), PCa-2b, Part D table, 72 hours",0.87 µM
CC1(C)CCC(O)C=C1/C=C/C(=O)/C=C/c1cnc2ccccc2c1 (stereo not drawn) [Compound B95],effect in MCF-7 breast cancer cell line,MCF-7 cells,effective
same,IC50,"MCF-7 cells; Homo sapiens, MCF7",5.5 µM
same,effect in MDA-MB-231 breast cancer cell line,MDA-MB-231 cells,effective
same,IC50,"MDA-MB-231 cells; Homo sapiens, MDA-MB-231",3.6 µM
same,effect in H-1975 lung cancer cell line,H-1975 cells,effective
same,IC50,"H-1975 cells; Homo sapiens, NCI-H1975",4.8 µM
same,suppression of DHT-induced transactivation of H874Y AR,H874Y mutated AR,effective
same,Antiandrogenic activity evaluated by luciferase assay in PC-3 cells H874Y,H874Y mutated AR,++
same,activity against HP-LNCaP cells,HP-LNCaP cells,remains active
same,competitive binding to the hormone-binding pocket of the AR-LBD,[9],competitive binding
same,IC50,"MDA PCa 2b cells [1]; human, 72 h",1300 nM
same,IC50,"22Rv1 cells [2]; human, 72 h",1100 nM
same,IC50,"C4-2B cells [3]; human, 72 h",870 nM
same,IC50,"PC-3 cells [4]; human, 72 h",2200 nM
same,IC50,PC-3 cells [5]; [10],2.3 µM
same,IC50,22Rv1 cells [6],1.2 µM
same,IC50,C4-2B cells [7],1.4 µM
same,IC50,"MDA PCa 2b cells [8]; read-out: Cellular IC50 (μM) PCa 2b, Table 9",1.3 µM
